{"source": "patent US20050201991A1", "about": "“Stem cell culture” (priority 2002, published 2005)", "test_system": "NTERA2 human EC cells", "assay": "Two fluorochrome flow cytometric analysis of FGF-4 reporter with SSEA-3 labelling on differentiation", "assay_type": "cell-based", "settings": "retinoic acid treated versus undifferentiated NTERA2 cells", "protocol": "Variations of these vectors including pTK-GFP, p5FGF4EN-GFP and p5FGF4EN-Bact-GFP with WES site linking an antibiotic selection marker, for example puromycin or neonmycin resistance, to the expression of GFP were also created (IRESantibiotic selection marker sequences were inserted in the Notl cloning site immediately 3′ to the GFP sequence).\nThe human embryonal carcinoma (EC) cell line, NTERA2 cl D1, was cultured in DMEM with 10% fetal calf serum as previously described (Andrews et al 1984). […]\nHuman EC and ES cells were transfected by the same protocol: After incubation at 37° C. overnight the cells were transfected, following the manufacturer's protocol, as follows: 9.5 μg DNA was diluted into 300 μl 0.15 M NaCl and mixed with 21 μl ExGen 500 (MBI Fermentas) and vortexed. […] After incubating for 6-12 hours at 37 C, the medium was removed and the cells fed with fresh medium and fluorescence observed by microscopy under UV epi-illumination.\nCell surface antigen expression of cultured cells was assessed by indirect immunofluorescence detected by flow cytofluorimetry, after harvesting the cultures as single cell suspensions using trypsin-EDTA, as described previously (Andrews et al 1987, Fenderson et al 1987). […] In some experiments, cells that were either positive or negative for SSEA3 and SSEA1 were isolated by fluorescence activated cell sorting (Andrews et al 1987).", "data": [{"compound": "CC1=C(/C=C/C(C)=C/C=C/C(C)=C/C(=O)O)C(C)(C)CCC1", "note": "[retenoic acid, all-trans-retinoic acid]", "values": [{"measurement": "GFP expression from FGF-4 reporter", "setting": "p5FGF4EN-GFPIP reporter", "result": "greatly reduced"}, {"measurement": "SSEA-3 expression", "result": "reduction"}]}]}
